Assay results published in article PMC4558152, “A small molecule inhibitor of atypical protein kinase C signaling inhibits pancreatic cancer cell transformed growth and invasion” (Oncotarget, 2015).

Target: T1, PKCζ (Homo sapiens, UniProt Q05513)
T1 construct: gene PRKCZ
T1 sequence (Q05513 1-113): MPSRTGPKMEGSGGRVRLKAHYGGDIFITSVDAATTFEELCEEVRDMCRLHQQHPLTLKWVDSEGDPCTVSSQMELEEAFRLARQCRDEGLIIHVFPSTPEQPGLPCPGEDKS
T1 sequence (Q9NPB6 whole entry partner): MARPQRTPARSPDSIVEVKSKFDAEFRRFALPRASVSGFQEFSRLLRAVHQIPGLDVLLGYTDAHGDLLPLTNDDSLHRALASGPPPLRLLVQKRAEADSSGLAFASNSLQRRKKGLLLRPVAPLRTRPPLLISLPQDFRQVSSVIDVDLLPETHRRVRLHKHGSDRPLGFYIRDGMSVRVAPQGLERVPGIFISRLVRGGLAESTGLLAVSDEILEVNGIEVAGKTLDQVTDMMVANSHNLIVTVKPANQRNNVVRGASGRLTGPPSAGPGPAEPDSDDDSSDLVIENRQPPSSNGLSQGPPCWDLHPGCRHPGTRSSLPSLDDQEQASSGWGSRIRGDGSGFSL

O=C(O)CC([S][Au])C(=O)O (stereo not shown) [ATM, Aurothiomalate]
IC50: 3 µM
